Test results reported in paper PMC4673899 (Analytical biochemistry, 2010).
Read-outs that look alike come from different tables or passages of the source. Primed or numbered codes have the meaning given here. Ends that are not written are not given here. Me3 = trimethyl on the lysine side chain; Me3″ = trimethyl (on lysine)

Key:
JMJD2E [1] = molecular target: T1, JMJD2E (Homo sapiens, UniProt B2RXH2); settings: read-out: IC50 (FDH), cited from earlier work
T1 sequence (B2RXH2 1-337): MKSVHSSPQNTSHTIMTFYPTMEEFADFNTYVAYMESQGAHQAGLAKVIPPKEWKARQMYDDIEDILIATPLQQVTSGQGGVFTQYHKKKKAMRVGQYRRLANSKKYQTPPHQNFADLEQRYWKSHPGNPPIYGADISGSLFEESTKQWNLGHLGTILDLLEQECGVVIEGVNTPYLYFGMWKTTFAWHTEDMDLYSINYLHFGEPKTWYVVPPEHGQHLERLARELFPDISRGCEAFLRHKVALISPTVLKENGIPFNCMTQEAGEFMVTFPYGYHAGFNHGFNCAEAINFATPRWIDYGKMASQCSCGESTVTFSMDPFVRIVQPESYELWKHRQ

JMJD2E [2] = molecular target: T1, JMJD2E; experiment: JMJD2E-peptide binding AlphaScreen assay
JMJD2E [3] = molecular target: T1, JMJD2E; settings: cited from earlier work
[4] = molecular target: histone H3K9me3 peptide (Homo sapiens) (UniProt P68431); experiment: SPR; settings: cited from earlier work
[5] = molecular target: T2, N-terminally His-tagged catalytic domain of recombinant JMJD2E (residues 1-337) (UniProt B2RXH2 1-337); experiment: AlphaScreen or HTRF
T2 sequence (looked up): T1 sequence (B2RXH2 1-337)

Chain of JMJD2A (O75164 2-1064): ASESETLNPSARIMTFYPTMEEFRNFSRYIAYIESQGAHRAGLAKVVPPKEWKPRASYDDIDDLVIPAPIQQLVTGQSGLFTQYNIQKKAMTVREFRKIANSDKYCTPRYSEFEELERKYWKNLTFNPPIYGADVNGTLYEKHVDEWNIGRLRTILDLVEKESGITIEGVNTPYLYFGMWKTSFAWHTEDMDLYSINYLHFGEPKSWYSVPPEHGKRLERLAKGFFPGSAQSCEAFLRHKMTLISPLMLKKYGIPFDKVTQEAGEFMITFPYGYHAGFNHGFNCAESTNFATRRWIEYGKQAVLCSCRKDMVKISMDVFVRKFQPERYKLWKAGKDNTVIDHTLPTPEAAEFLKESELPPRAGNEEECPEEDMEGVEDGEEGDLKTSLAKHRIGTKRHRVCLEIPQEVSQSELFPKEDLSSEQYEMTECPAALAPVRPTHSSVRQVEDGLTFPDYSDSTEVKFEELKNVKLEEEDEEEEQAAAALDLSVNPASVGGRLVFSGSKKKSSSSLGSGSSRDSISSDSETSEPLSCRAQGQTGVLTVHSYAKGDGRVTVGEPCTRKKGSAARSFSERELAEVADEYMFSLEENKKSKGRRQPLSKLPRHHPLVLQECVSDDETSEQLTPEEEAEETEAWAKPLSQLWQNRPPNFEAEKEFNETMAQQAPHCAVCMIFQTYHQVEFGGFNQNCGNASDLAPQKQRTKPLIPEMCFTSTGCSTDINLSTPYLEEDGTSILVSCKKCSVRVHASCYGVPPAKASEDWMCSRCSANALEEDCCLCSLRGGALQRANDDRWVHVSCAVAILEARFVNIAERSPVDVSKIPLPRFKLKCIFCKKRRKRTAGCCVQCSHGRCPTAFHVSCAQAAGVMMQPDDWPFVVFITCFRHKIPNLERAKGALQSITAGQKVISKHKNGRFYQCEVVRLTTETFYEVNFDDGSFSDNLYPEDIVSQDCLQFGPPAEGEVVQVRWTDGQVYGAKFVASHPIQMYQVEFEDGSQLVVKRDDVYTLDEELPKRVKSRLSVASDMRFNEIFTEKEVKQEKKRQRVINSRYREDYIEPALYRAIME

O=C(O)c1ccc(C(=O)O)nc1 [Compound 3, 2,5-PDCA]
IC50 (JMJD2E [1]; listed as 2,5-PDCA (3)): 180 µM

O=C(O)CCC(=O)C(=O)O [Compound 2OG, 2-oxoglutarate]
concentration at signal maximum in binding assay (JMJD2E [2]; JMJD2E pre-incubated with 2OG prior to biotinylated-H3(1-15)K9Me3): 10 to 30 µM | Km (JMJD2E [3]): 14 µM

JMJD2A (from UniProt O75164)
Kd [4]: 1 µM

O=C(O)c1ccc(C(=O)O)nc1 [Compound 4, 3,6-PDCA]
IC50 (JMJD2E [1]; listed as 3,6-PDCA (4)): > 1000 µM

H3(6-21)K9Me3: histone H3 residues 6-21 peptide with tri-methyl lysine 9 (TARK(Me3″)STGGKAPRKQLA-NH2)
relative JMJD2E affinity in the binding assay (JMJD2E [2]; competition of unlabelled peptide with biotin-H3(1-15)K9Me3): higher JMJD2E affinity than H3(1-15)K9Me3

O=C(O)c1cccnc1C(=O)O [Compound 2, 2,3-PDCA]
IC50 (JMJD2E [1]): > 5000 µM

ARTKQTARKSTGGKA (peptide, UniProt P68431 2-16, looked up, trimethyl-lysine at K9; C-terminal amide) [unlabelled H3(1-15)K9Me3 peptide]
IC50 [5]: 1.2 µM

TARK(Me3)STGGKAPRKQLA-NH2 (peptide, UniProt P68431 7-22, looked up) [H3(6-21)K9Me3 peptide]
binding result [5]: binds
